These results are taken from patent publication US11292803B2, “Bioreducible N-oxide-based probes for imaging of hypoxia” (THE BOARD OF TRUSTEES OF THE UNIVERSITY OF ILLINOIS, priority 2018, dated 2022).

Data set [1] in a line: pH dependence of absorbance and emission spectra. The note with it: buffers pH 4.8 to 12.0. In kind it is physicochemical. As to the method:
FIG. 13. (a) Absorbance and (b) fluorescence spectra of HyP-1 (2 μM) in 20 mM BRB buffers containing 50% v/v EtOH (pH range 4.8-12.0).
FIG. 14. (a) Absorbance and (b) fluorescence spectra of red-HyP-1 (2 μM) in 20 mM BRB buffers containing 50% v/v EtOH (pH range 4.8-12.0).
In addition to Fe(II), the response of HyP-1 to a variety of alkali, alkaline earth and transition metals was also determined. […] To further evaluate the stability of HyP-1, a 10 μM solution of the probe was exposed to ambient light and temperature for up to 5 days. Additionally, a 10 μM solution of HyP-1 supplemented with human plasma was incubated at 37° C. for 3 hours. […] As mentioned previously, a major limitation of 2-nitroimidazole-based hypoxia probes is their susceptibility to oxygen-independent reduction via two-electron processes, such as by bacterial nitroreductases. […] Finally, the photostability of both HyP-1 and red-HyP-1 was evaluated via continuous PA image acquisition at 770 nm over the course of 1 hour.
0.1 M potassium phosphate buffer (pH 7.4) was prepared by combining stock solutions of KH2PO4 (1 M, 0.990 mL) and K2HPO4 (1 M, 4.010 mL) and diluting to a final volume of 50 mL. […] Fine adjustments to pH were made via addition of 0.1 M HCl or 0.1 M NaOH. pH values were determined using a Mettler-Toledo SevenCompact pH meter calibrated using pH 4.0, 7.0 and 10.0 standard buffers at 25° C.

The nature of data set [2]: Photophysical characterization (absorbance, emission, extinction coefficient, quantum yield). It is filed as physicochemical. Conditions: for ΦF / ε / λabs / λem: measured in CHCl3 (Table 1). The procedure:
Having established an effective synthetic route, attention was turned to the photophysical characterization of HyP-1 and red-HyP-1 (Table 1). HyP-1 has an absorbance maximum at 670 nm and corresponding emission maximum at 697 nm (FIG. 3a). The extinction coefficient (ε) and quantum yield (ΦF) were measured to be 1.5×10^4 cm^−1 M^−1 and 0.33 respectively. Red-HyP-1, on the other hand, has absorbance and emission maxima at 760 nm and 798 nm, respectively.
4-Aminoacetophenone was purchased from AK Scientific. Ethyl iodide, DIPEA, K2CO3, KOH, Na2SO4 and NH4OAc were purchased from Oakwood Chemicals. Benzaldehyde, BF3×OEt2, BIPY, DPI, DMSO, m-CPBA, nitroreductase and rat liver microsomes were purchased from Sigma Aldrich. Nitromethane was purchased from Alfa Aesar. Anaero-Indicators, AnaeroPacka anaerobic gas generators, acetonitrile, n-BuOH, CH2Cl2, EtOAc and Hexanes were purchased from Fisher Scientific. CDCl3 was purchased from Cambridge Isotopes Laboratory. Agarose LE was purchased from Gold Biotechnology. NADPH was purchased from EMD Millipore. All chemicals were used as purchased without further purification. Fluorinated ethylene propylene (FEP) tubing (wall thickness 0.01″, inner diameters 0.08″ and 0.12″) were purchased from McMaster-Carr. Thin-layer chromatography (TLC) was performed using glass-backed TLC plates coated with silica gel containing an UV254 fluorescent indicator (Macherey-Nagel). Flash chromatography was performed with 230-400 mesh silica gel P60 (SiliCycle Inc). UV-visible spectra were recorded on a Cary 60 spectrometer. Fluorescence spectra were recorded on a QuantaMaster-400 scanning spectrofluorometer using micro fluorescence quartz cuvettes (Science Outlet). NMR spectra were taken using Bruker or Varian 500 MHz spectrometers at 25° C. High-resolution mass spectra were acquired using Waters Q-Tof Ultima ESI and Waters Synapt G2-Si ESI/LC-MS spectrometers. Cellular imaging was performed using an EVOS FL cell imaging system. In vivo Fluorescence imaging was performed using an IVIS Spectrum CT live-animal imaging system (Perkin-Elmer, USA). PA imaging was performed using an Endra Nexus 128 photoacoustic tomography system (Ann Arbor, Mich., USA).

Data set [3] deals with CYP450-rich rat liver microsomes. The procedure: FIG. 4. […] (a) Representative PA image (770 nm) of reaction mixtures incubated under normoxic or hypoxic conditions for 2 h, then quenched with an equal volume of acetonitrile. Dashed lines indicate positioning of FEP tubes. (b) Change in PA signal (770 nm) produced after 2 h incubation of HyP-1 (10 μM) with rat liver microsomes (RLM) (200 μg/mL) and NADPH (50 μM) in normoxic and hypoxic conditions (n=3). (c) Ratiometric fluorescence turn-on after 2 h incubation of HyP-1 (2 μM) with RLM ([…]) and NADPH (50 μM) in normoxic or hypoxic conditions (n=3). (d) Normalized fluorescent turn-on after 1 h hypoxic incubation of HyP-1 (2 μM) with RLM (100 μg/mL) and NADPH (50 μM) under various conditions. Statistical significance represents a comparison to the hypoxic control (n=6). Results with error bars are represented as mean±SD. **p<0.01, ***p<0.001, ****p<0.0001.
The responsiveness of HyP-1 to hypoxia was first evaluated in vitro via fluorescence by incubating HyP-1 with CYP450-rich rat liver microsomes under atmospheric (normoxic) and oxygen-deprived (hypoxic) conditions. […] The PA response of HyP-1 under identical conditions was evaluated by quenching the reaction mixtures with an equal volume of acetonitrile and transferring the solutions into fluorinated ethylene propylene (FEP) tubes, which were inserted into the centre of a 2 cm thick agarose-based tissue-mimicking phantom.
For hypoxic assays only, cuvettes were sealed with septa, then evacuated and filled with N2 (×3) prior to use. Potassium phosphate buffer (0.1 M, pH 7.4) and NADPH (0.5 mM) were degassed with N2 for 30 minutes. For all assays, phosphate buffer (889 μL) rat liver microsomes (200 μg/mL) and HyP-1 (1 μL, 2 mM in DMSO) were added to the cuvette and pre-incubated at 37° C. for 5 minutes. NADPH (100 μL) was added and incubation continued with fluorescence spectra acquisition occurring at the indicated time points. Spectra were acquired according to the following parameters: λex=672, emission range=685-800 nm and λex=750, emission range=760-900 nm. For BIPY and DPI experiments, the compounds were added from stock solutions (1 M BIPY in DMSO and 50 mM DPI in deionized water) following the 5 minute preincubation, and the buffer volume was adjusted such that the total volume in the cuvette was equal to 1 mL. Deactivated microsomes were prepared by heating in a 45° C. water bath for 30 minutes.

On to `CC[N+]([O-])(CC)c1ccc(-c2cc(-c3ccccc3)c3n2[B-](F)(F)[N+]2=C(c4ccc(OC)cc4)C=C(c4ccccc4)C2=N3)cc1` [HyP-1, 4-(5,5-difluoro-7-(4-methoxyphenyl)-1,9-diphenyl-5H-5λ^4,6λ^4-dipyrrolo[1,2-c:2′,1′-f][1,3,5,2]triazaborinin-3-yl)-N,N-diethylaniline oxide], for which the “pH dependence of absorbance and emission spectra” value in data set [1] is on record as “no significant pH dependence”. Moreover, in data set [2], the absorbance maximum came to 670 nm, the “decrease in quantum yield on conversion of HyP-1 to red-HyP-1” value is listed as 2.2 fold, the emission maximum amounted to 697 nm and the “extinction coefficient (ε)” value came out at 15000 cm⁻¹ M⁻¹. Besides, in data set [2], the “increase in extinction coefficient on conversion of HyP-1 to red-HyP-1” value was 3.6 fold, the “quantum yield (ΦF)” value stood at 0.33, the “shift in absorbance on conversion of HyP-1 to red-HyP-1” value turned out to be 90 nm and the ΦF was found to be 0.33. Further, in data set [2], the ε was 1.4 × 10^4 M^−1 cm^1, the λabs is 670 nm and the λem is 697 nm. Besides, the “conversion by heat-inactivated rat liver microsomes” value in data set [3] is on record as “converted to red-HyP-1”.
`CCN(CC)c1ccc(-c2cc(-c3ccccc3)c3n2[B-](F)(F)[N+]2=C(c4ccc(OC)cc4)C=C(c4ccccc4)C2=N3)cc1` [Red-HyP-1, 4-(5,5-difluoro-7-(4-methoxyphenyl)-1,9-diphenyl-5H-5λ^4,6λ^4-dipyrrolo[1,2-c:2′,1′-f][1,3,5,2]triazaborinin-3-yl)-N,N-diethylaniline]: in data set [1], the “pH dependence of absorbance and emission spectra” value is recorded as “no significant pH dependence”. In data set [2], the absorbance maximum is on record as 760 nm, the emission maximum came out at 798 nm, the “extinction coefficient (ε)” value was 54000 cm⁻¹ M⁻¹ and the “quantum yield (ΦF)” value was determined as 0.15. For the same molecule, in data set [2], the ΦF was 0.15, the ε is on record as 5.4 × 10^4 M^−1 cm^1, the λabs is 760 nm and the λem is given as 798 nm. In data set [3] (authentic solution, as RLM reaction mixture (aqueous buffer)), the emission maximum was found to be 785 nm.
